Test results as given in patent US20210207064A1, “COMPOUND FOR RESTORING CONTAMINATED SOIL OR CONTAMINATED WATER” (FNG RESEARCH CO., LTD., priority 2018, published 2021).

Experiments:
[1] = Heavy metal removal ability test in contaminated soil (ICP-MS), nickel; conditions: for Nickel (Ni) Adsorption amount: contaminated soil; for Nickel (Ni) Adsorption rate: relative to EDTA control
Protocol: (§1) (1) Preparation of Soil Contaminated with Heavy Metal
(§2) After collecting and pulverizing uncontaminated soil, fine particles obtained by using a mesh were mixed with the aqueous heavy metal solution to prepare soil samples contaminated with heavy metals.
(§3) Each 3 ml of the prepared aqueous solution was added to a soil sample contaminated with heavy metals and mixed for 5 minutes.
(§4) 50 ml of distilled water was added to the contaminated soil mixed with the aqueous solution for restoring soil, stirred for 20 minutes, and settled for 1 hour, and a supernatant was prepared as a sample solution.
(§5) The prepared sample solution was analyzed for the heavy metal component using an Inductively Coupled Plasma Mass Spectrometer (ICP-MS) (Xseries™ 2, Thermo Fisher Scientific, UK).
(§6) Adsorption rate of heavy metals (%)=(Adsorption amount of Embodiment/Adsorption amount of Control)×100 Equation 1

[2] = system: human skin; assay: Skin irritation test of active ingredient (patch method, CTFA guidelines); format: in vivo; conditions: 24 h patch; for Test result (number of subject) (+) / Test result (number of subject) (++) / Test result (number of subject) (±) / Test result (number of subject) (−): 20 people; for Test result (number of subject) (+): (+) apparent reddening; for Test result (number of subject) (++): (++) more reddened and swollen; for Test result (number of subject) (±): (±) slightly reddish; for Test result (number of subject) (−): (−) no erythema
Protocol: A filter paper disk was placed in an 8 mm diameter, 10 panels of pin chamber.
After 24 hours, the pin chamber was removed, and skin conditions were visually observed. The degree and grade for skin irritation were calculated according to the following Equation 2, and the results are shown in Table 4 below.
[Criteria for Skin Irritation]
(−): No erythema or particularly no symptoms; (±): slightly reddish than the periphery; (+): Apparent reddening than periphery; (++): More reddened and swollen than periphery.
[Grade for Skin Irritation]
Degree of irritation 0-0.1: Grade I (unstimulated);
Degree of irritation 0.11-0.3: Grade II (weakly stimulated);
Degree of irritation 0.31-0.5: Grade III (moderately stimulated);
Degree of irritation 0.51 or more: Grade IV (strongly stimulated)

[3] = Heavy metal removal ability test in contaminated soil (ICP-MS), arsenic; conditions: for Arsenic (As) Adsorption amount: contaminated soil; for Arsenic (As) Adsorption rate: relative to EDTA control
Protocol: as §1, §2, §3, §4, §5, §6

[4] = Heavy metal removal ability test in contaminated soil (ICP-MS), cadmium; conditions: for Cadmium (Cd) Adsorption amount: contaminated soil; for Cadmium (Cd) Adsorption rate: relative to EDTA control
Protocol: as §1, §2, §3, §4, §5, §6

[5] = Heavy metal removal ability test in contaminated soil around a factory (WAK-Me test kit); conditions: 1.0 wt % aqueous solution, colour comparison test kit
Protocol: The contaminated soil around the factory in the industrial complex was collected, pulverized, and meshed to prepare fine particles of soil samples.
Each 3 ml of aqueous solutions for restoring soil was added to soil samples and mixed for 5 minutes.

[6] = Formaldehyde (formalin) removing ability test (GC); conditions: 2.0% formaldehyde solution, 3 molar equivalents of compound, room temperature; for Formaldehyde GC Area, 30 min: after 30 min; for Formaldehyde GC Area, 180 min: after 180 min; for Formaldehyde GC Area, Initial: initial state

SMILES	Nickel (Ni) Adsorption amount ([1]; content 0.5% aqueous solution) [ppm]	Nickel (Ni) Adsorption rate ([1]; content 0.5%) [%]	Nickel (Ni) Adsorption amount ([1]; content 1.0% aqueous solution) [ppm]	Nickel (Ni) Adsorption rate ([1]; content 1.0%) [%]	Nickel (Ni) Adsorption amount ([1]; content 2.0% aqueous solution) [ppm]	Nickel (Ni) Adsorption rate ([1]; content 2.0%) [%]	Test result (number of subject) (+) ([2]; content 0.1 wt %)	Test result (number of subject) (++) ([2]; content 0.1 wt %)	Test result (number of subject) (±) ([2]; content 0.1 wt %)	Test result (number of subject) (−) ([2]; content 0.1 wt %)	Degree of irritation ([2]; content 0.1 wt %)	Grade for skin irritation ([2]; content 0.1 wt %)	Test result (number of subject) (+) ([2]; content 0.5 wt %)	Test result (number of subject) (++) ([2]; content 0.5 wt %)	Test result (number of subject) (±) ([2]; content 0.5 wt %)	Test result (number of subject) (−) ([2]; content 0.5 wt %)	Degree of irritation ([2]; content 0.5 wt %)	Grade for skin irritation ([2]; content 0.5 wt %)	Test result (number of subject) (+) ([2]; content 1.0 wt %)	Test result (number of subject) (++) ([2]; content 1.0 wt %)	further results
O=C(O)c1ccc(N2CCCN(c3ccc(C(=O)O)cc3)CCN(c3ccc(C(=O)O)cc3)CCCN(c3ccc(C(=O)O)cc3)CC2)cc1 [Embodiment 10, 4,4′,4″,4′″-(1,4,8,11-tetraazacyclotetradecane-1,4,8,11-tetrayl)tetrabenzoic Acid]	79	161	92	188	94	192	0	0	0	20	0	I (Degree of irritation 0-0.1: Grade I (unstimulated))	0	0	0	20	0	I (Degree of irritation 0-0.1: Grade I (unstimulated))	0	0	Test result (number of subject) (±) ([2]; content 1.0 wt %): 1; Test result (number of subject) (−) ([2]; content 1.0 wt %): 19; Degree of irritation ([2]; content 1.0 wt %): 0.05; Grade for skin irritation ([2]; content 1.0 wt %): I (Degree of irritation 0-0.1: Grade I (unstimulated)); Arsenic (As) Adsorption amount ([3]; content 0.5% aqueous solution): 39 ppm; Arsenic (As) Adsorption rate ([3]; content 0.5%): 156%; Arsenic (As) Adsorption amount ([3]; content 1.0% aqueous solution): 42 ppm; Arsenic (As) Adsorption rate ([3]; content 1.0%): 168%; Arsenic (As) Adsorption amount ([3]; content 2.0% aqueous solution): 46 ppm; Arsenic (As) Adsorption rate ([3]; content 2.0%): 184%; Cadmium (Cd) Adsorption amount ([4]; content 0.5% aqueous solution): 58 ppm; Cadmium (Cd) Adsorption rate ([4]; content 0.5%): 141%; Cadmium (Cd) Adsorption amount ([4]; content 1.0% aqueous solution): 65 ppm; Cadmium (Cd) Adsorption rate ([4]; content 1.0%): 159%; Cadmium (Cd) Adsorption amount ([4]; content 2.0% aqueous solution): 71 ppm; Cadmium (Cd) Adsorption rate ([4]; content 2.0%): 173%; Total amount (Cu, Zn, Mn, Ni, Cd) [5]: ≤5 ppm; Formaldehyde GC Area, 30 min [6]: 0.171 mAU*min; Formaldehyde GC Area, 180 min [6]: 0 mAU*min; Formaldehyde GC Area, Initial [6]: 0.305 mAU*min
O=C(O)CN1CCCN(CC(=O)O)CCN(CC(=O)O)CCCN(CC(=O)O)CC1 [Embodiment 9, 2,2′,2″,2′″-(1,4,8,11-tetraazacyclotetradecane-1,4,8,11-tetrayl)tetraacetic Acid]	76	155	85	173	96	196	0	0	0	20	0	I (Degree of irritation 0-0.1: Grade I (unstimulated))	0	0	0	20	0	I (Degree of irritation 0-0.1: Grade I (unstimulated))	0	0	Test result (number of subject) (±) ([2]; content 1.0 wt %): 2; Test result (number of subject) (−) ([2]; content 1.0 wt %): 18; Degree of irritation ([2]; content 1.0 wt %): 0.10; Grade for skin irritation ([2]; content 1.0 wt %): I (Degree of irritation 0-0.1: Grade I (unstimulated)); Arsenic (As) Adsorption amount ([3]; content 0.5% aqueous solution): 42 ppm; Arsenic (As) Adsorption rate ([3]; content 0.5%): 168%; Arsenic (As) Adsorption amount ([3]; content 1.0% aqueous solution): 46 ppm; Arsenic (As) Adsorption rate ([3]; content 1.0%): 184%; Arsenic (As) Adsorption amount ([3]; content 2.0% aqueous solution): 48 ppm; Arsenic (As) Adsorption rate ([3]; content 2.0%): 192%; Cadmium (Cd) Adsorption amount ([4]; content 0.5% aqueous solution): 61 ppm; Cadmium (Cd) Adsorption rate ([4]; content 0.5%): 149%; Cadmium (Cd) Adsorption amount ([4]; content 1.0% aqueous solution): 66 ppm; Cadmium (Cd) Adsorption rate ([4]; content 1.0%): 161%; Cadmium (Cd) Adsorption amount ([4]; content 2.0% aqueous solution): 70 ppm; Cadmium (Cd) Adsorption rate ([4]; content 2.0%): 171%; Total amount (Cu, Zn, Mn, Ni, Cd) [5]: ≤5 ppm; Formaldehyde GC Area, 30 min [6]: 0.182 mAU*min; Formaldehyde GC Area, 180 min [6]: 0 mAU*min; Formaldehyde GC Area, Initial [6]: 0.305 mAU*min
O=C(O)c1ccc(N(CCN(CCN(c2ccc(C(=O)O)cc2)c2ccc(C(=O)O)cc2)c2ccc(C(=O)O)cc2)CCN(c2ccc(C(=O)O)cc2)c2ccc(C(=O)O)cc2)cc1 [Embodiment 2, 4,4′,4″,4′″-(((ethane-1,2-diylbis((4-carboxyphenyl)azanediyl))bis(ethane-2,1-diyl))bis(azanetriyl))tetrabenzoic Acid]	94	192	96	196	103	210	0	0	0	20	0	I (Degree of irritation 0-0.1: Grade I (unstimulated))	0	0	0	20	0	I (Degree of irritation 0-0.1: Grade I (unstimulated))	0	0	Test result (number of subject) (±) ([2]; content 1.0 wt %): 1; Test result (number of subject) (−) ([2]; content 1.0 wt %): 19; Degree of irritation ([2]; content 1.0 wt %): 0.05; Grade for skin irritation ([2]; content 1.0 wt %): I (Degree of irritation 0-0.1: Grade I (unstimulated)); Arsenic (As) Adsorption amount ([3]; content 0.5% aqueous solution): 48 ppm; Arsenic (As) Adsorption rate ([3]; content 0.5%): 192%; Arsenic (As) Adsorption amount ([3]; content 1.0% aqueous solution): 49 ppm; Arsenic (As) Adsorption rate ([3]; content 1.0%): 196%; Arsenic (As) Adsorption amount ([3]; content 2.0% aqueous solution): 53 ppm; Arsenic (As) Adsorption rate ([3]; content 2.0%): 212%; Cadmium (Cd) Adsorption amount ([4]; content 0.5% aqueous solution): 75 ppm; Cadmium (Cd) Adsorption rate ([4]; content 0.5%): 183%; Cadmium (Cd) Adsorption amount ([4]; content 1.0% aqueous solution): 86 ppm; Cadmium (Cd) Adsorption rate ([4]; content 1.0%): 210%; Cadmium (Cd) Adsorption amount ([4]; content 2.0% aqueous solution): 88 ppm; Cadmium (Cd) Adsorption rate ([4]; content 2.0%): 215%; Total amount (Cu, Zn, Mn, Ni, Cd) [5]: ≤5 ppm; Formaldehyde GC Area, 30 min [6]: 0.168 mAU*min; Formaldehyde GC Area, 180 min [6]: 0 mAU*min; Formaldehyde GC Area, Initial [6]: 0.305 mAU*min
